Laboratory results reported in ChEMBL document CHEMBL5046284, “Structure-Based Design of a Chemical Probe Set for the 5-HT5A Serotonin Receptor” (J Med Chem, 2022).
Calls of active or inactive are those of the source.

Experiments:
[1] = biological target: T1, 5-hydroxytryptamine receptor 5A (Homo sapiens, UniProt P47898); assay: Displacement of [3H]-5-CT from human 5-HT5A receptor incubated for 2 hr by radioligand binding assay
[2] = biological target: T1, 5-hydroxytryptamine receptor 5A; assay: Agonist activity at human 5-HT5A receptor transfected in HTLA cells assessed as increase in beta-arrestin 2 recruitment by measuring maximal efficacy at 10 uM incubated for 18 to 20 hrs by bright-Glo reagent based Tango assay relative to control; format: functional, cell-based; conditions: time 18-20 hrs
[3] = system: Mus musculus; assay: Sedative activity in IT dosed […] mouse assessed as effect on locomotor activity measured after 60 mins by rotarod test; format: toxicity, organism-based; conditions: in vivo, icv_or_intrathecal, 1 h
[4] = biological target: 5-hydroxytryptamine receptor 7 (Homo sapiens) (UniProt P34969); assay: Binding affinity to 5-HT7AR (unknown origin)
[5] = biological target: 5-hydroxytryptamine receptor 2B (Homo sapiens, UniProt P41595); assay: Binding affinity to 5-HT2BR (unknown origin) assessed as inhibition constant
[6] = biological target: T1, 5-hydroxytryptamine receptor 5A; assay: Agonist activity at human 5-HT5A receptor transfected in HTLA cells assessed as increase in beta-arrestin 2 recruitment at 10 uM incubated for 18 to 20 hrs by bright-Glo reagent based Tango assay; format: functional, cell-based
[7] = species: Homo sapiens; assay: Binding affinity to human 5-HT5A receptor W117A mutant ssessed as fold reduction in binding by competition binding assay relative to control; conditions: filed as agonist
[8] = biological target: D(2) dopamine receptor (Homo sapiens) (UniProt P14416); assay: Agonist activity at DRD2 (unknown origin) transfected in HTLA cells assessed as beta-arrestin 2 recruitment at 10 uM incubated for 18 to 20 hrs by luciferin based Tango assay; format: functional, cell-based; conditions: filed as agonist, time 18-20 hrs
[9] = system: Mus musculus; assay: Effect on baseline mechanical thresholds in IT dosed […] mouse measured after 30 mins by von Frey test; format: functional, organism-based
[10] = biological target: T2, 5-hydroxytryptamine receptor 1A (Homo sapiens) (UniProt P08908); assay: (§1) Binding affinity to 5-HT1AR (unknown origin) assessed as inhibition constant
T2 sequence (whole entry): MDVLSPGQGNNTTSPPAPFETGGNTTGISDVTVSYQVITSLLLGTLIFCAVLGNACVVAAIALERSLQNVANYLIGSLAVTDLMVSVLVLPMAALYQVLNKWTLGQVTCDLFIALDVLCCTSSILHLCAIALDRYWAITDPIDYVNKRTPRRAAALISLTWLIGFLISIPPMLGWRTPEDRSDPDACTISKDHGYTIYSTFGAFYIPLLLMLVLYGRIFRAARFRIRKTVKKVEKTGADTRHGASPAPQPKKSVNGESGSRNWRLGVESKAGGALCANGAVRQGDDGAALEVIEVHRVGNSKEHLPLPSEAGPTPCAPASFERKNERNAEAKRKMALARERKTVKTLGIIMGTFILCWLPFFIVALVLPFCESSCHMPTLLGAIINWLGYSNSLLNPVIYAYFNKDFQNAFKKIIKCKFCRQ

[11] = system: Mus musculus; assay: Antiallodynic activity in IT dosed […] mouse model of spared nerve injury-induced neuropathic pain assessed as increase in paw withdrawal mechanical threshold measured after 30 mins by von Frey test; format: functional, organism-based
[12] = biological target: T3, 5-hydroxytryptamine receptor 2C (Homo sapiens) (UniProt P28335); assay: Agonist activity at 5-HT2CR (unknown origin) transfected in HTLA cells assessed as beta-arrestin 2 recruitment at 10 uM incubated for 18 to 20 hrs by luciferin based Tango assay; format: functional, cell-based; conditions: filed as agonist, time 18-20 hrs
T3 sequence (whole entry): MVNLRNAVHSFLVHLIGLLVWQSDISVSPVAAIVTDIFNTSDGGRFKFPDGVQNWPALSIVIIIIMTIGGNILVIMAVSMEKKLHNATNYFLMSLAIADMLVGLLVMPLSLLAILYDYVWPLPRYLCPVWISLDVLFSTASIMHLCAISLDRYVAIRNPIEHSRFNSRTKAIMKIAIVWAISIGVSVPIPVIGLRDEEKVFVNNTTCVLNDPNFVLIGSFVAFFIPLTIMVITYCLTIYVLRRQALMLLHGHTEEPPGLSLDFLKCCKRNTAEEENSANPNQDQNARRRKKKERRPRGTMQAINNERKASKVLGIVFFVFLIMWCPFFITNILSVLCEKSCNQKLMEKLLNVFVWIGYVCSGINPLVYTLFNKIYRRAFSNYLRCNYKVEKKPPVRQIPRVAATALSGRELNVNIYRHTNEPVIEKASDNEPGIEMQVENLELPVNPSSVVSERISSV

[13] = biological target: T1, 5-hydroxytryptamine receptor 5A; assay: Antagonist activity at human 5-HT5AR assessed as […] of [35S]GTPgammaS binding at 100 uM incubated for 3 to 5 hrs; format: functional; conditions: filed as antagonist, time 3-5 hrs
[14] = biological target: T1, 5-hydroxytryptamine receptor 5A; assay: Displacement of [3H]-5-CT from human 5-HT5A receptor at 100 uM incubated for 2 hr by radioligand binding assay
[15] = biological target: T1, 5-hydroxytryptamine receptor 5A; assay: Displacement of [3H]-5-CT from human 5-HT5A receptor at 32 uM incubated for 2 hr by radioligand binding assay
[16] = biological target: T1, 5-hydroxytryptamine receptor 5A; assay: Displacement of [3H]-5-CT from human 5-HT5A receptor at 1 uM incubated for 2 hr by radioligand binding assay
[17] = biological target: Atypical chemokine receptor 3 (Homo sapiens) (UniProt P25106); assay: Agonist activity at CXCR7 (unknown origin) transfected in HTLA cells assessed as beta-arrestin 2 recruitment at 10 uM incubated for 18 to 20 hrs by luciferin based Tango assay; format: functional, cell-based; conditions: time 18-20 hrs
[18] = biological target: 5-hydroxytryptamine receptor 1D (Homo sapiens, UniProt P28221); assay: Binding affinity to 5-HT1DR (unknown origin) assessed as inhibition constant
[19] = biological target: 5-hydroxytryptamine receptor 2A (Homo sapiens, UniProt P28223); assay: Binding affinity to 5-HT2AR (unknown origin) assessed as inhibition constant
[20] = biological target: T4, 5-hydroxytryptamine receptor 2C (Homo sapiens, UniProt P28335); assay: (§2) Binding affinity to 5-HT2CR (unknown origin) assessed as inhibition constant
T4 sequence (P28335 whole entry): T3 sequence (whole entry)

[21] = biological target: T1, 5-hydroxytryptamine receptor 5A; assay: Antagonist activity at human 5-HT5AR assessed as inhibition of beta-arrestin 2 recruitment by measuring reduction in RLuc8-based luminescence incubated for 20 to 30 mins in absence of agonist by luminescence based analysis; format: functional; conditions: filed as antagonist, time 20-30 min
[22] = biological target: 5-hydroxytryptamine receptor 1B (Homo sapiens, UniProt P28222); assay: Binding affinity to 5-HT1BR (unknown origin) assessed as inhibition constant
[23] = biological target: T5, 5-hydroxytryptamine receptor 1A (Homo sapiens, UniProt P08908); assay: as §1
T5 sequence (P08908 whole entry): T2 sequence (whole entry)

[24] = biological target: T6, 5-hydroxytryptamine receptor 3A (Homo sapiens, UniProt P46098); assay: (§3) Binding affinity to 5-HT3 (unknown origin) assessed as inhibition constant
T6 sequence (P46098 whole entry): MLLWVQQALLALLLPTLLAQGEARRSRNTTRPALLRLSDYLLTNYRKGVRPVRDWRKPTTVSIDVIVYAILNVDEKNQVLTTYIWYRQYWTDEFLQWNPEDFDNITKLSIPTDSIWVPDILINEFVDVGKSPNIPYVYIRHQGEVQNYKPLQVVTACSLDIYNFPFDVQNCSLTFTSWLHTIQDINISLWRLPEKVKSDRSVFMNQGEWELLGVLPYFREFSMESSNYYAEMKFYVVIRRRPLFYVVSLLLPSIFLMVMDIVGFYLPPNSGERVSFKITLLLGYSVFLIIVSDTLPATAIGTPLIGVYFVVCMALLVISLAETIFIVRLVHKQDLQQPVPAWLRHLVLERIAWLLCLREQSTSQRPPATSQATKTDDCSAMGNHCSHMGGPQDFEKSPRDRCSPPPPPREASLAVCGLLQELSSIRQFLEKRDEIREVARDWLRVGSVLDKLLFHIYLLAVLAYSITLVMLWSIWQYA

[25] = system: HEK-293T; assay: Cytotoxicity against HEK293T cells assessed as reduction in cell viability at high concentration incubated for overnight; format: toxicity, cell-based; conditions: human
[26] = biological target: T3, 5-hydroxytryptamine receptor 2C (Homo sapiens); assay: as §2
[27] = biological target: T7, Alpha-2A adrenergic receptor (Homo sapiens) (UniProt P08913); assay: Agonist activity at ADRA2A (unknown origin) transfected in HTLA cells assessed as beta-arrestin 2 recruitment at 10 uM incubated for 18 to 20 hrs by luciferin based Tango assay; format: functional, cell-based; conditions: time 18-20 hrs
T7 sequence (whole entry): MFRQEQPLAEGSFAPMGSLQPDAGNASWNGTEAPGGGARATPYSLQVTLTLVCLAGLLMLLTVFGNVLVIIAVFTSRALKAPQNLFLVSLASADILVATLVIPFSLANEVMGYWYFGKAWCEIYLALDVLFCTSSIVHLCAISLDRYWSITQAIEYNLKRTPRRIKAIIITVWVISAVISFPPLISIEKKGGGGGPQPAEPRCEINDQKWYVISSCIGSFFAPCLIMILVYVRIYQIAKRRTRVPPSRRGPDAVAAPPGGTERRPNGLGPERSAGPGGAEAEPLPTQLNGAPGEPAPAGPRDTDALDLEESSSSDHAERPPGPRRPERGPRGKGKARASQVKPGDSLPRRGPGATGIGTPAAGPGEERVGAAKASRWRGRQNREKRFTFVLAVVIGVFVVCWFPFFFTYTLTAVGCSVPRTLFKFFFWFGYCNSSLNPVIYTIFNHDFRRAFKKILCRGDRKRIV

[28] = biological target: Melatonin receptor type 1A (Homo sapiens) (UniProt P48039); assay: Agonist activity at MTNR1A (unknown origin) transfected in HTLA cells assessed as beta-arrestin 2 recruitment at 10 uM incubated for 18 to 20 hrs by luciferin based Tango assay; format: functional, cell-based; conditions: time 18-20 hrs
[29] = biological target: T8, 5-hydroxytryptamine receptor 3A (Homo sapiens) (UniProt P46098); assay: as §3
T8 sequence (whole entry): T6 sequence (P46098 whole entry)

T1 sequence (P47898 whole entry): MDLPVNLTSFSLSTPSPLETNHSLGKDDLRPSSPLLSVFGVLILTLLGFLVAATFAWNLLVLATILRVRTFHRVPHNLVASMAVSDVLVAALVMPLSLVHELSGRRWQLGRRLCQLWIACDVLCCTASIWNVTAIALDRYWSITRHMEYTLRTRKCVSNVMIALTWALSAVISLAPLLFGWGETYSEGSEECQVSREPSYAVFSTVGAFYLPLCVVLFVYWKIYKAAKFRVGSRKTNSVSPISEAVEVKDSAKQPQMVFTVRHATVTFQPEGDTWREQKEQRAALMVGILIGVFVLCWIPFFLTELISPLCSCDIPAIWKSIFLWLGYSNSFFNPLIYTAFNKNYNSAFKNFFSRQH
5-hydroxytryptamine receptor 2B, sequence (P41595 whole entry): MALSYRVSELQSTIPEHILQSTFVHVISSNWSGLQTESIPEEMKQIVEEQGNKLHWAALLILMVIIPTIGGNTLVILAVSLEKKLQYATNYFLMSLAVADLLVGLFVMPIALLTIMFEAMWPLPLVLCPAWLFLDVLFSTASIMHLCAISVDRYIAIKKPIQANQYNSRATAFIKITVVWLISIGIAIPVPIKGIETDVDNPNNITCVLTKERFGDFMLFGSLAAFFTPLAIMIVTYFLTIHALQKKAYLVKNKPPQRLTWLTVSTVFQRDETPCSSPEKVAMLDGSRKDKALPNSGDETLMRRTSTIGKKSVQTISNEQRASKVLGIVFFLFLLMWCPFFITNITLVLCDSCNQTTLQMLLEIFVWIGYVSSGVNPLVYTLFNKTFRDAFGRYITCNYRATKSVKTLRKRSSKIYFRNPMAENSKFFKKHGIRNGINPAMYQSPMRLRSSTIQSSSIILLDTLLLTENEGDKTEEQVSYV
5-hydroxytryptamine receptor 2A, sequence (P28223 whole entry): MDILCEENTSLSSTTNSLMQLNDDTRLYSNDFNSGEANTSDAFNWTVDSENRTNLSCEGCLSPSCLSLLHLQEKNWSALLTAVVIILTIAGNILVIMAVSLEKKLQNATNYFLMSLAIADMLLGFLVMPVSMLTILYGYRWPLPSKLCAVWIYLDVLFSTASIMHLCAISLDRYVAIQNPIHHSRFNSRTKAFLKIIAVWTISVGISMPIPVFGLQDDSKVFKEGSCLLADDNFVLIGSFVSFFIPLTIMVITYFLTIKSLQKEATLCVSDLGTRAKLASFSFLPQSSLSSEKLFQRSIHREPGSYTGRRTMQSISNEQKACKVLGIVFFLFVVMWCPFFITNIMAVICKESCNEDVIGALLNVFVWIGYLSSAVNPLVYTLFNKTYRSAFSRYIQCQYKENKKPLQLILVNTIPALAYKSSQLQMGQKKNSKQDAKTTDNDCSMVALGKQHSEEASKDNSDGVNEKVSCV
5-hydroxytryptamine receptor 7 (Homo sapiens), sequence (P34969 whole entry): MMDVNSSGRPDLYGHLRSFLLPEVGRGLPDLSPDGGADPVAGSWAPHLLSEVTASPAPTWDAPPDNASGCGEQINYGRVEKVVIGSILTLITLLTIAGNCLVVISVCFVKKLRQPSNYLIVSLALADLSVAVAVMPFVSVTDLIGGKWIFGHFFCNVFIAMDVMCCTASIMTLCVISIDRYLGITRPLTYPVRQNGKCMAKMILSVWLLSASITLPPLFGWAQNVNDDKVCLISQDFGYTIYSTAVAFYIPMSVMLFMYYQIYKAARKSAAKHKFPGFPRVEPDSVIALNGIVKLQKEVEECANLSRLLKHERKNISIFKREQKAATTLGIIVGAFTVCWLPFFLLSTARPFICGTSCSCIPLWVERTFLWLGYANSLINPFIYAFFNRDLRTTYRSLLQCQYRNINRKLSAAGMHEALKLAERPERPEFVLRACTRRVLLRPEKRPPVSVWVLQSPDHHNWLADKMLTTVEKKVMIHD
5-hydroxytryptamine receptor 1B, sequence (P28222 whole entry): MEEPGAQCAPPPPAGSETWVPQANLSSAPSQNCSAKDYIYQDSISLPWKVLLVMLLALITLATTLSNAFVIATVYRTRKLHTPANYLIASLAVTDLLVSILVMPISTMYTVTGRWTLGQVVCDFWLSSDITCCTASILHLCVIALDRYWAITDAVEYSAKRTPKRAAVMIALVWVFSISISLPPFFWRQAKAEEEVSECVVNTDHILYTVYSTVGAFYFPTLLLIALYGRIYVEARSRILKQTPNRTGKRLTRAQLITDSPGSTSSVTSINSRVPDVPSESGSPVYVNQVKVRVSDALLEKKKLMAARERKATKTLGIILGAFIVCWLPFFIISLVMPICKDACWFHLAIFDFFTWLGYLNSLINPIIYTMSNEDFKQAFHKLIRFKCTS
5-hydroxytryptamine receptor 1D, sequence (P28221 whole entry): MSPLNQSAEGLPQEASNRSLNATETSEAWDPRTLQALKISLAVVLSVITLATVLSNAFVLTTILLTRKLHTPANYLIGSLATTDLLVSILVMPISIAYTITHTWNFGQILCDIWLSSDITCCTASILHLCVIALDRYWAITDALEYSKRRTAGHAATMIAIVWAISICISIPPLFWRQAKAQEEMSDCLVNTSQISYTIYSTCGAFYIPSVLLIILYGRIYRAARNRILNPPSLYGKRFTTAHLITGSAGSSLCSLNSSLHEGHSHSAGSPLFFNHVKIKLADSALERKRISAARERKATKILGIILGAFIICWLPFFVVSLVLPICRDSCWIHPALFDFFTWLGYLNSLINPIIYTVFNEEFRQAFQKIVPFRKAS
D(2) dopamine receptor (Homo sapiens), sequence (P14416 whole entry): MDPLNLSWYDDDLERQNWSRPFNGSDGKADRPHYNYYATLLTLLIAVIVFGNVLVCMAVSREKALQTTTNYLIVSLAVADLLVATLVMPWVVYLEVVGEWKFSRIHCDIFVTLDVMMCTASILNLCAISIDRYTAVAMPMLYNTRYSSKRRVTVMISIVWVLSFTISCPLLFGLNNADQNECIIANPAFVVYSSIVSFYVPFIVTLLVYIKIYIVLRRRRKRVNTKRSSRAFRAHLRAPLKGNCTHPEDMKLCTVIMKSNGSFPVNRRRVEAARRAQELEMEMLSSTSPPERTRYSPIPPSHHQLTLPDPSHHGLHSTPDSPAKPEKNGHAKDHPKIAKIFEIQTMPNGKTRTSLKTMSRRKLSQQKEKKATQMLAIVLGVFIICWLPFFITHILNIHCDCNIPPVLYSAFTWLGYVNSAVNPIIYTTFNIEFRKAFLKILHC
Atypical chemokine receptor 3 (Homo sapiens), sequence (P25106 whole entry): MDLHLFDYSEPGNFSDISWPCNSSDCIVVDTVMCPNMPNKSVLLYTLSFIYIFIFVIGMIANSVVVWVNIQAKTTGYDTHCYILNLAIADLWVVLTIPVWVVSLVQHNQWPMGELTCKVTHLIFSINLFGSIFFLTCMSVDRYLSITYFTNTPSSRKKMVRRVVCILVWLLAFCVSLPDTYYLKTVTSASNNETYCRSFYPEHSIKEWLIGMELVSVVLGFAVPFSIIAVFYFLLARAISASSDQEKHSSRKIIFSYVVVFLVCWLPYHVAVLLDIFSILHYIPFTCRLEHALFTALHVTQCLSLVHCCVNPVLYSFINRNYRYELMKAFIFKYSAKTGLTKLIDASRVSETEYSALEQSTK
Melatonin receptor type 1A (Homo sapiens), sequence (P48039 whole entry): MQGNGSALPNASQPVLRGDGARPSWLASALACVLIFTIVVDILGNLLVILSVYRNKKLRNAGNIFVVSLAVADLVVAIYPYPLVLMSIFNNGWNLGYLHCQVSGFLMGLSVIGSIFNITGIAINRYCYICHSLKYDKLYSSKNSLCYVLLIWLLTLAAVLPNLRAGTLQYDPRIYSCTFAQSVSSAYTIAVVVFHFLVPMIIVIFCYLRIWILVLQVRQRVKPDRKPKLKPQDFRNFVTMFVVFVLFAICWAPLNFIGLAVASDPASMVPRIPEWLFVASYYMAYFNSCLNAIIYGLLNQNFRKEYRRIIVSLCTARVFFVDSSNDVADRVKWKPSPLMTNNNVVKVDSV

## CN(C)S(=O)(=O)CCNCc1cccc2cccnc12
[1]
  Ki: 0.229 µM

## CS(=O)(=O)C1(CNCc2cccc3cccnc23)CC1
[2]
  Emax: 18.3%
[3]
  Activity: Non-Toxic
[4]
  Activity: inactive
[5]
  Activity: inactive
[6]
  EC50: 0.355 µM
[7]
  fold change (FC): 25
[8]
  Activity: Active
[9]
  Activity: inactive
[10]
  Activity: inactive
[11]
  Activity: Active
[12]
  Activity: Active

## Cc1cnc(NCc2ccccc2-n2ccnc2)nc1N(C)C
[13]
  Activity: Active
[14]
  Ki: 12.9 µM

## Clc1ccc(CNC[C@H]2CCn3ccnc3C2)c2ncccc12
[15]
  Ki: 1.5 µM

## Clc1ccc(CNCCc2cccnc2)c2ncccc12
[16]
  Ki: 2.4 µM

## Clc1ccc(CNCC[C@@H]2CCOC2)c2ncccc12
[15]
  Ki: 6.7 µM

## CS(=O)(=O)C1(CNCc2ccc(Cl)c3cccnc23)CC1
[2]
  Emax: 10.5%
[6]
  EC50: 3.63 µM
[11]
  Activity: inactive

## N#CC1(c2ccccc2)CCC(NCCc2nnc3ccccn23)CC1 (stereo not drawn)
[13]
  Activity: Active
[14]
  Ki: 28.8 µM

## CN(C)S(=O)(=O)CCNCc1ccc(Cl)c2cccnc12
[16]
  Ki: 0.208 µM

## CN(C)S(=O)(=O)C1(CNCc2ccc(Cl)c3cccnc23)CC1
[1]
  Ki: 0.107 µM
[7]
  fold change (FC): 3.9

## CN1CC[C@H](CNCc2ccc(Cl)c3cccnc23)CC1=O
[15]
  Ki: 4 µM

## O=C(CCCNCc1ccc(Cl)c2cccnc12)NC1CC1
[13]
  Activity: Active
[14]
  Ki: 11.5 µM

## O=S1(=O)CCC[C@@H](CNCc2cccc3cccnc23)C1
[16]
  Ki: 0.705 µM

## CS(=O)(=O)CCCNCc1ccc(Cl)c2cccnc12
[3]
  Activity: Non-Toxic
[9]
  Activity: inactive
[11]
  Activity: Active

## CN(C)S(=O)(=O)CCNCc1ccc(F)c2cccnc12
[1]
  Ki: 0.271 µM

## CC(C)(C)c1ccc2c(c1)CN(C[C@@H](O)COC1CCOCC1)CC2
[13]
  Activity: Active
[14]
  Ki: 21.4 µM

## O=C1C[C@H](CNCc2ccc(Cl)c3cccnc23)CN1C1CC1
[15]
  Ki: 6.7 µM

## CCS(=O)(=O)CCCNCc1ccc(Cl)c2cccnc12
[3]
  Activity: Non-Toxic
[4]
  Activity: inactive
[5]
  Activity: inactive
[1]
  Ki: > 10 µM
[17]
  Activity: inactive
[9]
  Activity: inactive
[10]
  Activity: inactive
[11]
  Activity: Active

## CN(C)CCN(Cc1ccc(-c2ccc(CNCCc3ccccc3)cc2)cc1)C(=O)CCC1CCCC1
[18]
  Ki: < 2 µM
[19]
  Ki: < 2 µM
[20]
  Ki: < 2 µM
[21]
  Activity: Dose-Dependent Effect
[13]
  Activity: Active
[5]
  Ki: < 2 µM
[22]
  Ki: < 2 µM
[23]
  Ki: < 2 µM
[24]
  Ki: < 2 µM
[25]
  Activity: Non-Toxic

## CN(C)S(=O)(=O)CCNCc1cccc2ncccc12
[18]
  Activity: inactive
[19]
  Activity: inactive
[26]
  Activity: inactive
[5]
  Activity: inactive
[22]
  Activity: inactive
[27]
  Activity: inactive
[10]
  Activity: inactive
[11]
  Activity: inactive
[28]
  Activity: inactive
[29]
  Activity: inactive

## O=S1(=O)CCC[C@@H](CNCc2ccc(Cl)c3cccnc23)C1
[15]
  Ki: 3.1 µM

## O=S1(=O)CC[C@@H](CNCc2cccc3cccnc23)C1
[16]
  Ki: 0.57 µM

## Cc1cnn(C[C@H](C)NCc2cccc(OCc3ccccn3)c2)c1
[13]
  Activity: Active
[14]
  Ki: 20.9 µM
